Measurements reported in patent US20260053812A1, “METHODS OF TREATING HYPERTENSION WITH A COMBINATION OF AN ALDOSTERONE SYNTHASE INHIBITOR AND A DIURETIC” (Mineralys Therapeutics, Inc., priority 2022, published 2026).

Tests used:
Format in all cases: in vivo, human
serum aldosterone = assay: Pharmacodynamics: serum aldosterone; details: for Aldosterone, mean observed: BL; for Aldosterone levels relative to baseline: Part 1 lorundrostat-treated (range across doses)
Description: (§1) PK/PD Analysis Set includes all subjects in the SAF who have sufficient data available for the analysis of pharmacokinetic and pharmacodynamic measurements. In the analyses based on PKPD, subjects will be analyzed according to the actual treatment received.

11-deoxycortisol = assay: Pharmacodynamics: plasma 11-deoxycortisol; details: for 11-Deoxycortisol, mean observed: BL
Description: as §1

Serum sodium = details: active treatment cohorts, Parts 1 and 2

With `CC(=O)N[C@H]1CC[C@H](NC(=O)CN2CCN(c3nncc(-c4ccc(C)cc4)n3)CC2)CC1` [Compound A HBr] the “Aldosterone, mean observed” value (serum aldosterone; Part 1, 12.5 mg BID) was 6.636 ng/dL, the “Aldosterone, mean observed” value (serum aldosterone; Part 1, 12.5 mg QD) was 7.065 ng/dL and the “Aldosterone, mean observed” value (serum aldosterone; Part 1, 25 mg BID) was 6.558 ng/dL. For the same compound, the “Aldosterone, mean observed” value (serum aldosterone; Part 1, 50 mg QD) was 6.205 ng/dL, the “Aldosterone, mean observed” value (serum aldosterone; Part 1, 100 mg QD) was 6.533 ng/dL and the “Aldosterone levels relative to baseline” value (serum aldosterone; Week 4) was −40.1% to 7.4%. For the same compound, the “Aldosterone levels relative to baseline” value (serum aldosterone; Week 12) was −26.6% to 15.9%, the “Aldosterone, mean observed” value (serum aldosterone; Part 2, 100 mg QD) was 6.435 ng/dL and the Serum aldosterone levels (serum aldosterone; pharmacodynamic response across doses) was “dose-dependent reduction”. The “11-Deoxycortisol, mean observed” value (11-deoxycortisol; Part 1, 12.5 mg BID) was 28.36 ng/dL, the “11-Deoxycortisol, mean observed” value (11-deoxycortisol; Part 1, 12.5 mg QD) was 29.07 ng/dL and the “11-Deoxycortisol, mean observed” value (11-deoxycortisol; Part 1, 25 mg BID) was 25.87 ng/dL. For the same compound, the “11-Deoxycortisol, mean observed” value (11-deoxycortisol; Part 1, 50 mg QD) was 31.14 ng/dL, the “11-Deoxycortisol, mean observed” value (11-deoxycortisol; Part 1, 100 mg QD) was 29.97 ng/dL and the 11-deoxycortisol (11-deoxycortisol; Part 1 active treatment arms, Week 4 compared with placebo) was “Transient increases”. For the same compound, the “11-Deoxycortisol, mean observed” value (11-deoxycortisol; Part 2, 100 mg QD) was 40.79 ng/dL and the Serum sodium levels (Serum sodium) was “decreased”.
